According to ChEMBL document CHEMBL1201862, “PubChem BioAssay data set” (2004):
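Cells were grown in 96-well plates and exposed to each compound for 48 hours at five concentrations; endpoints were interpolated linearly between bracketing concentrations, or set to the highest concentration if not reached. The concentration for 50% growth inhibition is given as GI50.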 Activity calls are given as the source filed them. No stated cut-off is given here; in the data, active = GI50 up to about 1.1 µM and inactive = higher.

Experiments:
Assay in all cases: NCI-60 cell line screen, 48 h
MOLT-4 = test system: MOLT-4
SK-MEL-2 = test system: SK-MEL-2
Hs-578T = test system: Hs-578T
MDA-N = test system: MDA-N
Malme-3M = test system: Malme-3M
786-0 = test system: 786-0
HCC 2998 = test system: HCC 2998
U-251 = test system: U-251
HT-29 = test system: HT-29
UACC-62 = test system: UACC-62
OVCAR-3 = test system: OVCAR-3
DU-145 = test system: DU-145
KM12 = test system: KM12
M14 = test system: M14
SK-MEL-28 = test system: SK-MEL-28
ACHN = test system: ACHN
PC-3 = test system: PC-3
MDA-MB-231 = test system: MDA-MB-231
HL-60 = test system: HL-60
CCRF-CEM = test system: CCRF-CEM

Measured: GI50

O=c1[nH]nc(Cc2ccccc2)n1CCO
inactive: MOLT-4 > 100 µM | SK-MEL-2 > 100 µM | Hs-578T > 100 µM | MDA-N > 100 µM | Malme-3M > 100 µM | 786-0 > 100 µM | HCC 2998 > 100 µM | U-251 > 100 µM | HT-29 > 100 µM | UACC-62 > 100 µM | OVCAR-3 > 100 µM | DU-145 > 100 µM | KM12 > 100 µM | M14 > 100 µM | SK-MEL-28 > 100 µM | ACHN > 100 µM | PC-3 > 100 µM | MDA-MB-231 > 100 µM

COc1cc(OC)nc(Nc2c(C#N)c3nc4ccccc4n3c3ccccc23)n1
inactive: MOLT-4 > 100 µM | SK-MEL-2 25.8 µM | Hs-578T 47.6 µM | MDA-N > 100 µM | 786-0 16.5 µM | HCC 2998 > 100 µM | U-251 31.3 µM | HT-29 > 100 µM | UACC-62 37.1 µM | OVCAR-3 31.3 µM | HL-60 > 100 µM | DU-145 > 100 µM | KM12 45.9 µM | M14 > 100 µM | SK-MEL-28 > 100 µM | ACHN 18.7 µM | PC-3 40.3 µM | CCRF-CEM > 100 µM

CC(=O)OCC(=O)OC[C@H](OCc1ccccc1)[C@@H]1[C@H](OC(C)=O)C(=O)N1Cc1ccccc1
inactive: MOLT-4 > 100 µM | SK-MEL-2 > 100 µM | Hs-578T > 100 µM | MDA-N > 100 µM | Malme-3M > 100 µM | 786-0 > 100 µM | U-251 > 100 µM | HT-29 > 100 µM | UACC-62 > 100 µM | OVCAR-3 > 100 µM | DU-145 > 100 µM | KM12 > 100 µM | M14 > 100 µM | SK-MEL-28 > 100 µM | ACHN > 100 µM | PC-3 > 100 µM | CCRF-CEM > 100 µM | MDA-MB-231 > 100 µM

CCOC(=O)C(C(=O)OCC)C(=S)NC1OC(COC(C)=O)C(OC(C)=O)C(OC(C)=O)C1OC(C)=O (configuration not stated)
inactive: MOLT-4 > 100 µM | SK-MEL-2 > 100 µM | Hs-578T > 100 µM | MDA-N > 100 µM | Malme-3M > 100 µM | 786-0 > 100 µM | HCC 2998 > 100 µM | U-251 > 100 µM | HT-29 > 100 µM | UACC-62 > 100 µM | OVCAR-3 > 100 µM | HL-60 > 100 µM | DU-145 > 100 µM | KM12 > 100 µM | M14 > 100 µM | SK-MEL-28 > 100 µM | CCRF-CEM > 100 µM | MDA-MB-231 > 100 µM

C[n+]1ccccc1/C1=c2\cc/c([nH]2)=C(\c2cccc[n+]2C)C2=N/C(=C(/c3cccc[n+]3C)C3C=CC(N3)/C(c3cccc[n+]3C)=C3/C=CC1=N3)C=C2
inactive: MOLT-4 58.1 µM | SK-MEL-2 > 100 µM | Hs-578T > 100 µM | MDA-N > 100 µM | Malme-3M > 100 µM | 786-0 > 100 µM | HCC 2998 > 100 µM | U-251 > 100 µM | HT-29 39.3 µM | UACC-62 > 100 µM | OVCAR-3 58.7 µM | HL-60 > 100 µM | DU-145 > 100 µM | KM12 62.4 µM | M14 > 100 µM | SK-MEL-28 > 100 µM | ACHN > 100 µM | PC-3 > 100 µM | CCRF-CEM 3.26 µM

Cc1ccc2c(O)cc(-c3ccc(F)cc3)nc2n1
inactive: MOLT-4 26.8 µM | SK-MEL-2 45.7 µM | Hs-578T 26.5 µM | MDA-N 12.1 µM | Malme-3M 32.4 µM | HCC 2998 44 µM | HT-29 30.1 µM | UACC-62 24.1 µM | HL-60 14.1 µM | DU-145 81.7 µM | KM12 22.4 µM | M14 47.6 µM | SK-MEL-28 49 µM | ACHN 42.6 µM | CCRF-CEM 32.1 µM | MDA-MB-231 63 µM

C[N+]1(CCN[N+]2(C)CCCCC2)CCc2ccccc2C1 (configuration not stated)
inactive: MOLT-4 > 100 µM | SK-MEL-2 > 100 µM | Hs-578T > 100 µM | MDA-N > 100 µM | Malme-3M > 100 µM | 786-0 > 100 µM | HCC 2998 > 100 µM | U-251 > 100 µM | HT-29 > 100 µM | UACC-62 > 100 µM | OVCAR-3 > 100 µM | DU-145 > 100 µM | KM12 > 100 µM | M14 > 100 µM | SK-MEL-28 > 100 µM | ACHN > 100 µM | PC-3 > 100 µM | CCRF-CEM > 100 µM | MDA-MB-231 > 100 µM

N#CCCSC(=S)C1CCCC1=N (configuration not stated)
inactive: MOLT-4 > 100 µM | SK-MEL-2 > 100 µM | Hs-578T > 100 µM | MDA-N > 100 µM | Malme-3M > 100 µM | 786-0 > 100 µM | U-251 > 100 µM | HT-29 > 100 µM | UACC-62 > 100 µM | OVCAR-3 > 100 µM | HL-60 > 100 µM | DU-145 > 100 µM | KM12 > 100 µM | M14 > 100 µM | SK-MEL-28 > 100 µM | ACHN > 100 µM | PC-3 > 100 µM | MDA-MB-231 > 100 µM

NC(=O)CSc1nc2ccccc2c(=O)n1N
inactive: MOLT-4 > 100 µM | SK-MEL-2 > 100 µM | Hs-578T > 100 µM | MDA-N > 100 µM | Malme-3M > 100 µM | 786-0 > 100 µM | HCC 2998 > 100 µM | U-251 > 100 µM | HT-29 > 100 µM | UACC-62 > 100 µM | OVCAR-3 > 100 µM | DU-145 > 100 µM | KM12 > 100 µM | M14 > 100 µM | SK-MEL-28 > 100 µM | ACHN > 100 µM | PC-3 > 100 µM | MDA-MB-231 > 100 µM

CC1CNC(c2ccc3c(c2)Cc2cc(C4=NC(C)CN4)ccc2-3)=N1 (configuration not stated)
inactive: MOLT-4 37.8 µM | SK-MEL-2 23.2 µM | Hs-578T 38.1 µM | MDA-N 34.8 µM | Malme-3M 19.2 µM | 786-0 54.3 µM | HCC 2998 18.2 µM | U-251 19.4 µM | HT-29 61.2 µM | UACC-62 28.6 µM | OVCAR-3 20.8 µM | DU-145 65.8 µM | KM12 20.3 µM | M14 40.2 µM | SK-MEL-28 87.1 µM | ACHN > 100 µM | PC-3 43.8 µM | CCRF-CEM > 100 µM | MDA-MB-231 33.6 µM

OCC1OC(N2CCN(C3OC(CO)C(O)C(O)C3O)CC2)C(O)C(O)C1O (configuration not stated)
inactive: MOLT-4 > 100 µM | SK-MEL-2 > 100 µM | Hs-578T > 100 µM | MDA-N > 100 µM | Malme-3M > 100 µM | 786-0 > 100 µM | HCC 2998 > 100 µM | U-251 > 100 µM | HT-29 > 100 µM | UACC-62 > 100 µM | OVCAR-3 > 100 µM | DU-145 > 100 µM | KM12 > 100 µM | M14 > 100 µM | SK-MEL-28 > 100 µM | ACHN > 100 µM | PC-3 > 100 µM | MDA-MB-231 > 100 µM

CCC(C)C(NC(=O)C(CCCC[N+](=N)N)NC(=O)C(CCCC[N+](=N)N)NC(=O)c1ccc(OC)cc1)C(=O)NC(CCCC[N+](=N)N)C(=O)N1CCCC1C(=O)NC(CCCCN)C(=O)NC(CC(C)C)C(N)=O (configuration not stated)
inactive: MOLT-4 > 100 µM | Hs-578T > 100 µM | MDA-N > 100 µM | Malme-3M > 100 µM | 786-0 > 100 µM | HCC 2998 > 100 µM | U-251 > 100 µM | HT-29 > 100 µM | UACC-62 > 100 µM | OVCAR-3 > 100 µM | DU-145 > 100 µM | KM12 > 100 µM | M14 > 100 µM | SK-MEL-28 > 100 µM | ACHN > 100 µM | PC-3 > 100 µM | CCRF-CEM > 100 µM | MDA-MB-231 > 100 µM

COc1ccc(N2C(=O)/C(=C\c3cc(OC)c(OC)c(OC)c3)SC2c2ccccc2)cc1 (configuration not stated)
inactive: MOLT-4 > 100 µM | SK-MEL-2 > 100 µM | Hs-578T 50.9 µM | MDA-N 25.4 µM | Malme-3M 54.6 µM | 786-0 > 100 µM | HCC 2998 > 100 µM | U-251 56.5 µM | HT-29 > 100 µM | UACC-62 58.9 µM | OVCAR-3 > 100 µM | HL-60 10.4 µM | DU-145 > 100 µM | KM12 51.6 µM | M14 55.7 µM | SK-MEL-28 > 100 µM | ACHN 62.4 µM | CCRF-CEM 21.2 µM | MDA-MB-231 > 100 µM

CC(C)Nc1n[nH]c(=O)n1C(C)C
inactive: MOLT-4 > 100 µM | SK-MEL-2 > 100 µM | Hs-578T 49.9 µM | MDA-N > 100 µM | 786-0 > 100 µM | U-251 > 100 µM | HT-29 > 100 µM | UACC-62 > 100 µM | OVCAR-3 > 100 µM | HL-60 > 100 µM | DU-145 > 100 µM | KM12 > 100 µM | M14 > 100 µM | SK-MEL-28 > 100 µM | ACHN > 100 µM | PC-3 > 100 µM | CCRF-CEM > 100 µM | MDA-MB-231 > 100 µM

COc1cc(C(=O)CBr)c(OC)cc1C
inactive: MOLT-4 > 100 µM | SK-MEL-2 > 100 µM | Hs-578T 72.4 µM | MDA-N > 100 µM | Malme-3M > 100 µM | 786-0 > 100 µM | U-251 > 100 µM | HT-29 > 100 µM | UACC-62 85.7 µM | HL-60 > 100 µM | DU-145 > 100 µM | KM12 > 100 µM | M14 > 100 µM | SK-MEL-28 > 100 µM | ACHN > 100 µM | PC-3 > 100 µM | CCRF-CEM > 100 µM | MDA-MB-231 > 100 µM
